Laboratory results as given in patent US20140357633A1, “COMPOUNDS FOR INHIBITING THE INTERACTION OF BCL2 WITH BINDING PARTNERS” (NOVARTIS AG, priority 2011, published 2014).
Values joined by “and” are separate entries in the source; they are usually repeats but may differ in a detail not shown here. Identical values can stand only once.

Experiments:
[1] = molecular target: BCL-2 (binding to BAD peptide) (Homo sapiens, UniProt P10415); assay: SPR (Biacore) solution inhibition assay, BCL-2 binding to immobilized BAD peptide; conditions: biotinylated BAD peptide surface, 56 nM BCL-2, 25° C.; range = high and low IC50 values from multiple experiments; read-out: BCL2_SPR IC50 BAD
Chain of BCL-2 (binding to BAD peptide) (P10415 whole entry): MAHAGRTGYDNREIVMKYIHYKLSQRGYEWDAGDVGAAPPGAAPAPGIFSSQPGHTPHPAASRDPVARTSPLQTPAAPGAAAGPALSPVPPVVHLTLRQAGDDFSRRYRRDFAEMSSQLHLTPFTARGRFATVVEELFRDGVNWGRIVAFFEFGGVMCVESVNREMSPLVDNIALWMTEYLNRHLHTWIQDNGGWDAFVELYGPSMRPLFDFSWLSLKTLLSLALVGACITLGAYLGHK
How it was run: (§1)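 Compounds (6-point threefold series, 16 μM to 0.004 nM) preincubated 1 h with 56 nM BCL-2, then injected 60 s over biotinylated peptide captured on streptavidin chips at 25° C. Running buffer: 10 mM HEPES pH 7.4, 150 mM NaCl, 1.25 mM DTT, 3% DMSO, 0.05% polysorbate 20. % inhibition versus BCL-2-only binding gave IC50.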

[2] = molecular target: BCL-2 (binding to BAK peptide) (Homo sapiens, UniProt P10415); assay: SPR (Biacore) solution inhibition assay, BCL-2 binding to immobilized BAK peptide; conditions: biotinylated BAK peptide surface, 56 nM BCL-2, 25° C.; range = high and low IC50 values from multiple experiments; read-out: BCL2_SPR IC50 BAK
Chain of BCL-2 (binding to BAK peptide) (P10415 whole entry): as above
How it was run: as §1

| Compound | IC50 [1] | IC50 [2] |
| --- | --- | --- |
| CCCCN(CCCC)C(=O)c1cc(C)n(-c2ccc(NC(=O)Cc3cc(F)ccc3OC)cc2C(=O)N2Cc3ccccc3C[C@H]2CO)n1 [Example 70] | 143 to 158 nM | 133 to 134 nM |
| CCCCN(CCCC)C(=O)c1cc(C)n(-c2ccc(NC(=O)COc3ccc([N+](=O)[O-])cc3)cc2C(=O)N2Cc3ccccc3C[C@H]2CO)n1 [Example 21] | 2390 to 2670 nM | 1950 to 2170 nM |
| CCCCC(CCCC)C(=O)c1cc(C)n(-c2ccc(NC(=O)COc3cccc4ccccc34)cc2C(=O)N2Cc3ccccc3C[C@H]2CO)n1 [Example 110] | 273 to 318 nM | 250 to 272 nM |
| CCCCN(CCCC)C(=O)c1cc(C)n(-c2ccc(NC(=O)CCc3cn4cccnc4n3)cc2C(=O)N2Cc3ccccc3C[C@H]2CO)n1 [Example 79] | 369 to 398 nM | 299 to 351 nM |
| CCCCN(CCCC)C(=O)c1cc(C)n(-c2ccc(NC(=O)c3cc(-c4cccc(O)c4)[nH]n3)cc2C(=O)N2Cc3ccccc3C[C@H]2CO)n1 [Example 134] | 918 to 958 nM | 739 to 881 nM |
| CCCCN(CCCC)C(=O)c1cc(C)n(-c2ccc(NC(=O)c3ccc(-c4ccc(OC)cc4)[nH]c3=O)cc2C(=O)N2Cc3ccccc3C[C@H]2CO)n1 [Example 156] | 1740 to 1800 nM | 1830 to 2380 nM |
| CCCCN(CCCC)C(=O)c1cc(C)n(-c2ccc(NC(=O)C(C)c3ccc4ccccc4c3)cc2C(=O)N2Cc3ccccc3C[C@H]2CO)n1 (stereo partly drawn) [Example 114] | 61.9 to 73.1 nM and 64.1 to 72.9 nM and 51 to 54.5 nM | 57.2 to 59.9 nM and 58.3 to 62 nM and 52.4 to 53.4 nM |
| CCCCN(CCCC)C(=O)c1cc(C)n(-c2ccc(NC(=O)c3ccccc3Nc3ccccc3[N+](=O)[O-])cc2C(=O)N2Cc3ccccc3C[C@H]2CO)n1 [Example 146] | 467 to 500 nM | 396 to 471 nM |
| CCCCN(CCCC)C(=O)c1cc(C)n(-c2ccc(NC(=O)CCc3nc(-c4ccccc4)no3)cc2C(=O)N2Cc3ccccc3C[C@H]2CO)n1 [Example 60] | 111 to 120 nM | 95.2 to 96.7 nM |
| CCCCN(CCCC)C(=O)c1cc(C)n(-c2ccc(NC(=O)C(C)(C)CC(=O)O)cc2C(=O)N2Cc3ccccc3C[C@H]2CO)n1 [Example 39] | 143 to 166 nM | 106 to 124 nM |
| CCCCN(CCCC)C(=O)c1cc(C)n(-c2ccc(NC(=O)c3cnc(N4CCCC4)nc3)cc2C(=O)N2Cc3ccccc3C[C@H]2CO)n1 [Example 88] | 388 to 405 nM | 290 to 393 nM |
| CCCCN(CCCC)C(=O)c1cc(C)n(-c2ccc(NC(=O)COc3ccccc3Cl)cc2C(=O)N2Cc3ccccc3C[C@H]2CO)n1 [Example 23] | 4850 to 4930 nM | 3900 to 4170 nM |
| CCCCN(CCCC)C(=O)c1cc(C)n(-c2ccc(NC(=O)Cc3ccc(F)cc3)cc2C(=O)N2Cc3ccccc3C[C@H]2CO)n1 [Example 98] | 302 to 306 nM | 244 to 267 nM |
| CCCCN(CCCC)C(=O)c1cc(C)n(-c2ccc(NC(=O)C(CC(=O)O)c3ccccc3)cc2C(=O)N2Cc3ccccc3C[C@H]2CO)n1 (stereo partly drawn) [Example 2, 4-((4-(3-(dibutylcarbamoyl)-5-methyl-1H-pyrazol-1-yl)-3-((S)-3-(hydroxymethyl)-1,2,3,4-tetrahydroisoquinoline-2-carbonyl)phenyl)amino)-4-oxo-3-phenylbutanoic acid] | 30.3 to 53.6 nM | 27.5 to 44.8 nM |
| CCCCN(CCCC)C(=O)c1cc(C)n(-c2ccc(NC(=O)c3ccc(OC(F)(F)F)cc3)cc2C(=O)N2Cc3ccccc3C[C@H]2CO)n1 [Example 93] | 1850 to 1900 nM | 1770 to 1830 nM |
| CCCCN(CCCC)C(=O)c1cc(C)n(-c2ccc(NC(=O)C(CC(=O)NC)c3ccccc3)cc2C(=O)N2Cc3ccccc3C[C@H]2CO)n1 (stereo partly drawn) [Example 55] | 100 to 129 nM | 81 to 110 nM |
| CCCCN(CCCC)C(=O)c1cc(C)n(-c2ccc(NC(=O)C(CC(=O)O)Cc3ccccc3)cc2C(=O)N2Cc3ccccc3C[C@H]2CO)n1 (stereo partly drawn) [Example 15] | 53.4 to 59 nM | 44.2 to 47.7 nM |
| CCCCN(CCCC)C(=O)c1cc(C)n(-c2ccc(NC(=O)CCC3COc4ccccc43)cc2C(=O)N2Cc3ccccc3C[C@H]2CO)n1 (stereo partly drawn) [Example 130] | 60.7 to 61.4 nM | 50.2 to 53.1 nM |
